US7966056B2, “Magnetic resonance imaging method and compounds for use in the method” (GE Healthcare AS, priority 2002, dated 2011)

Key:
mice = details: intravenous injection in mice; cited from earlier work
anaesthetised dogs = assay: cardiovascular effects in anaesthetised dogs with and without dobutamine stress (Example 7); format: in vivo; details: dobutamine alone, 5-20 μg/kg/min infusion
Procedure: The cardiovascular effects of MnHPTA with various amounts of Ca^2+ (0, 0.5 and 1 mol Ca^2+ per mol Mn^2+) were investigated in the presence and absence of dobutamine induced pharmacological stress in anaesthetised dogs.
Anaesthesia was induced with pentobarbital (12-25 mg/kg i.v.) and fentanyl (1.5-2.5 μg/kg i.v.), followed by a continuous i.v. infusion of fentanyl (20 μg/kg/h and pentobarbital (10 mg/kg/h). Artificial ventilation was carried out by room air through a tracheal tube, aimed at achieving normal physiological blood gas values. A catheter was introduced through the right femoral artery for measurement of SAP. A microtip pressure transducer catheter (Millar) was placed into the left ventricle through the carotid artery for measurements of LVdP/dt. A Swan-Ganz catheter was introduced through the right femoral vein for measuring PAP (pulmonary arterial pressure). A 3-lead ECG was continuously-monitored. An ultrasonic flow probe was placed around the left femoral artery for flow measurement. Venflon cannulas were introduced into the left and right jugular veins for contrast agent injections and dobutamine infusions, respectively. […]
Systolic, diastolic and mean systemic arterial pressure (SYS, DIA MEAN), LVdP/dt, femoral arterial flow, mean PAP (pulmonary arterial pressure), HR (heart rate) and ECG were continuously monitored and stored by a computer system.

[1] = maximum solubility in water; format: physicochemical
Description: In the method according to the invention the contrast agent is preferably administered in a bolus injection although slow injection or infusion of the contrast agent is also suitable. For Mn^2+ complexes with low formation constants, e.g. in the area 10^3 to 10^8 there might be a risk that the release of Mn^2+ from the complex may still be sufficiently rapid to induce cardiotoxic reactions in the body. To avoid such toxic reactions, the contrast agent comprising such complexes could be provided in solutions comprising low concentrations of such complexes. If it is preferred to provide the contrast agent in dry form, e.g. as a lyophilized powder, for on site preparation of the solution for injection, complexes with properties that avoid the preparation of high concentration solutions provide an additional advantage. For example the sodium salt of MnTPP, Na3MP3O10, has a limited solubility, thus prohibiting injections of highly concentrated solutions of manganese. […] This injection volume additionally prohibits rapid bolus injections of sodium salts of MnTPP.

Procedure for myocardium: In an anaesthesed pig, heart rate and systolic/diastolic blood pressure were monitored.
Dobutamine was infused at a dose of 10 μg/kg body weight/min and increased by 10 μg/kg/min every second minute until a PRP (pressure-rate product) of a factor 2.5 was achieved.
10 μmol/kg body weight of MnTPP was injected in a bolus during 4 seconds.
The pig was subjected to imaging at 1.5 T in a clinical scanner. Short axis view images of the myocardium were acquired 45 minutes post injection.

[Ba+2].[Cl-].[Cl-] [BaCl2]
LD50 (mice): 19.2 mg/kg

[Ca+2].[Cl-].[Cl-] [CaCl2]
LD50 (mice): 42.2 mg/kg

CC(CCc1ccc(O)cc1)NCCc1ccc(O)c(O)c1 (stereo not drawn) [Dobutamine, dobutamine]
increase in dP/dt max (anaesthetised dogs): 4 times

O=P([O-])([O-])OP(=O)([O-])OP(=O)([O-])[O-].[Mn+2].[Na+].[Na+].[Na+] [sodium salt of MnTPP]
maximum solubility in water [1]: 23 mM

manganese triphosphate [MnTPP]
clinical signs represented by changes in physiological parameters (myocardium; 10 μmol/kg body weight bolus during 4 seconds, dobutamine stress, anaesthetised pig): No clinical signs represented by changes in physiological parameters were observed
short axis view MR images of the myocardium (myocardium; 10 μmol/kg, 1.5 T, 45 minutes post injection, pig): visualised an underperfused area
